From paper PMC8228849, “Characterization of the Highly Efficient Acid-Stable Xylanase and β-Xylosidase System from the Fungus Byssochlamys spectabilis ATHUM 8891 (Paecilomyces variotii ATHUM 8891)” (Journal of Fungi, 2021)
Blank lines part the entries; values can stand above or below the molecule they belong to.

Key:
[1] = biological target: T1, PvXyd3A (Paecilomyces variotii, UniProt A0A443HSR8); assay: pNP-X hydrolysis initial rates, Lineweaver-Burk; type: biochemical; conditions: competitive; substrate pNP-X; xylose at 5, 20 and 50 mM; methods text misprints the enzyme as Xyn3A
T1 construct: gene C8Q69DRAFT_305813; native secreted enzyme purified from culture supernatant (Brewer's Spent Grain); 78 kDa; pI between 3 and 4; GH3; once misprinted PvXyd11A
T1 sequence (A0A443HSR8 28-800): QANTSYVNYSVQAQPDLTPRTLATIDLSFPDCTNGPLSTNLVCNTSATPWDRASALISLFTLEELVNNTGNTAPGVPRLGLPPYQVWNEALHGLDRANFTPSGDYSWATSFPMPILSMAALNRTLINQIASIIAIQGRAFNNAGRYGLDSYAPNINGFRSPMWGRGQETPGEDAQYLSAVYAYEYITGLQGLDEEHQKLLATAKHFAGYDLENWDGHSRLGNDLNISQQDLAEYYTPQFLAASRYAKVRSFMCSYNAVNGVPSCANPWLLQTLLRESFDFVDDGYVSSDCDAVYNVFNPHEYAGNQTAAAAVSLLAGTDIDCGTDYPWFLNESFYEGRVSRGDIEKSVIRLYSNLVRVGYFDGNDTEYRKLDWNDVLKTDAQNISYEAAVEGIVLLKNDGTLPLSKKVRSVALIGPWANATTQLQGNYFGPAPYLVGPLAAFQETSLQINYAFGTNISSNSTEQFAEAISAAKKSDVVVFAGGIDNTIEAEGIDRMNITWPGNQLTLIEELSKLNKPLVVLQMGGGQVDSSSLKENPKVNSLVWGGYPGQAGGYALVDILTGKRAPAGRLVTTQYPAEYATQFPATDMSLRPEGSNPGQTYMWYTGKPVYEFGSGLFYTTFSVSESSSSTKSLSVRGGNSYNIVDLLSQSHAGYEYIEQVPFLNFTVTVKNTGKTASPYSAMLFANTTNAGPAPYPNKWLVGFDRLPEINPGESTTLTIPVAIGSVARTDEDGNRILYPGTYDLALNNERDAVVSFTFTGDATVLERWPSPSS

[2] = substrate: O=[N+]([O-])c1ccc(O[C@@H]2OC[C@@H](O)[C@H](O)[C@H]2O)cc1; assay: purified protein; type: biochemical, Paecilomyces variotii; conditions: standard assay pH 4 citrate-phosphate, 50 °C, 0.1-20 mM pNP-X, Table 4 prints 0.45 ± 0.06 mM

Ki [1]: 10.2 mM
Molecule: OC1OC[C@@H](O)[C@H](O)[C@H]1O (some centres unmarked) [X1, xylose]

B1: PvXyd3A (Paecilomyces variotii) (protein)
chain: T1 sequence (A0A443HSR8 28-800)
notes: native secreted enzyme purified from culture supernatant (Brewer's Spent Grain); 78 kDa; pI between 3 and 4; GH3; once misprinted PvXyd11A
Km [2]: 480 ± 60 µM
